Assay results taken from patent US20260373136A1, “A NOVEL DOSAGE REGIMEN USING LOW DOSES OF DONEPEZIL OR DERIVATIVE THEREOF FOR PREVENTING OR TREATING A COMPULSIVE DISORDER” (SORBONNE UNIVERSITE, priority 2022, published 2026).

What was measured:
[1] = Clinical observation of eating disorder behaviours and cognitions of anorexic patients treated with donepezil; format: in vivo, human
Procedure: (§1) 6 anorexic patients were treated with donepezil: 5 of them with a daily dose according to the present invention and 1 with a higher dose (comparative).
(§2) The studies were led in hospital. Each case is presented below.
Patient #2 is a person who developed anorexia nervosa restricting type in adolescence. They were very restricted in the types of food they ate and could not eat food that was processed or high in sugar or fats. They exercised 3-4 hours a day. They were unable to reduce their exercising even minimally […] becoming flooded with debilitating anxiety. They were unable to eat enough to maintain a healthy weight. Their BMI was 18.5 kg/m^2 and was medically stable when they started donepezil.
(§3) The treatment started with a daily dose of donepezil of 0.5 mg for 10 days then the daily dose was increased to 1 mg for 7 days then increased to 1.5 mg for 71 days (2 months and 10 days) then increased to 2 mg for 22 days and then increased to 2.5 mg and remains on this dose for 4 months and 18 days.
Patient #3 is a person with a 20-year history of anorexia nervosa binge/purge type who had been in recovery for two years before relapsing following a relationship trauma. They were slowly losing weight and was bingeing and purging multiple times every evening. They also were waking up every morning at 4 am to exercise obsessively for hours. They were spending all their disposable income on binge foods and was slowly draining their savings. At times they were stealing food to binge on.
The treatment started with a daily dose of donepezil of 0.5 mg for 10 days and then the daily dose was increased to 1 mg for 9 days and then increased to 1.5 mg for 17 days and then increased to 2 mg for 7 days and then increased to 2.5 mg for 16 days and then discontinued.
(§4) The treatment started with a daily dose of donepezil of 0.5 mg for 13 days then the daily dose was increased to 0.75 mg for 9 days then increased to 1 mg for 17 days and then increased to 1.5 mg and remained at this dosage for a month then stopped for two months and then restarted with a daily dose of 1.5 mg that remains within 1 month and then discontinued.
A patient who has suffered from anorexia nervosa during their second pregnancy. They have been vigilant about their caloric intake and body image since their adolescence. They also suffer from recurrent depression treated with venlafaxine 75 mg per day and a generalized anxiety disorder. Undernutrition worsened markedly, reaching a minimum BMI of 11 kg/m^2. The maximum lifetime BMI excluding pregnancy is 19.8 kg/m^2. The symptomatology is dominated by qualitative and quantitative food restriction and physical hyperactivity. There is a period of several months of hyperphagia and provoked vomiting. Neurocognitive executive functions are preserved, there is a high tolerance of delayed reward measured by Delay Discounting Task.
Donepezil was taken at a rate of 2.5 mg per day for 2 months.
A person with a 20-year history of anorexia nervosa-binge/purge subtype and a comorbid history or obsessive-compulsive disorder. They have been very symptomatic throughout their adolescence and went into a partial remission in early adulthood. Over the next 10 years, their symptoms waxed and waned and they had 2 major relapses that they had slowly recovered from. They were currently weight restored but following some environmental stresses, was starting to relapse. They were struggling with increasing eating disordered ruminations and cognitions, increasing body image distortions and dissatisfaction. They were becoming more rigid and restrictive in their eating. They also saw a rise in their obsessive-compulsive disorder symptoms.
(§5) The treatment started with a daily dose of donepezil of 0.5 mg for 8 days and then the daily dose was increased to 1 mg for 9 days and then increased to 1.67 mg for 62 days and then increased to 2.5 mg.

[2] = Yale-Brown Obsessive Compulsive Scale questionnaire (Y-BOCS) before and after treatment; format: in vivo, human; conditions: for OCD symptoms: Y-BOCS post vs pre-treatment; for Y-BOCS score, post treatment: 0-7 subclinical, 8-15 mild, 16-23 moderate, 24-31 severe, 32-40 extreme symptoms
Procedure: as §1, §2, §3
Patient #2 obsessive-compulsive disorders (OCD) symptoms have also been evaluated with the Yale-Brown Obsessive Compulsive Scale questionnaire (Y-BOCS) (available on https://pcl.psychiatry.uw.edu/wp-content/uploads/2021/12/YBOCS.pdf) before and after the treatment. The following scores have been obtained:
The score obtained with questionnaire Y-BOCS is classified as follows: • 0-7: subclinical; 8-15: mild symptoms; 16-23: moderate symptoms; 24-31: severe symptoms; 32-40: extreme symptoms
as §4
Patient #4 obsessive-compulsive disorders (OCD) symptoms have also been evaluated with questionnaire Y-BOCS-before and after the treatment. The following scores have been obtained:
as §5
Patient #6 obsessive-compulsive disorders (OCD) symptoms have also been evaluated with questionnaire Y-BOCS-before and after the treatment.

[3] = Patient #2, daily dose 0.5-2.5 mg, over the next 5 months
[4] = Patient #3, daily dose 0.5-2.5 mg, within a month of starting
[5] = Patient #6, daily dose 0.5 mg to 2.5 mg, over 3 months

## COc1cc2c(cc1OC)C(=O)C(CC1CCN(Cc3ccccc3)CC1)C2 (centres unmarked) [donepezil]
[1]; [3]
  flexibility with eating: able to be more flexible with their eating and incorporate a wider variety of foods
  preoccupation with weight or appearance: much less preoccupied with their weight or appearance
  ruminations and compulsions to exercise: decrease in ruminations and compulsions to exercise
[1]; Patient #2, daily dose 0.5-2.5 mg, over the next 5 months, exercised 3-4 hours a day before
  exercise per day: 90 minutes a day
[1]; [4]
  bingeing (and consequent purging): able to reduce their bingeing (and consequent purging) significantly
  stealing food: stopped stealing food completely
[1]; Patient #3, daily dose 0.5-2.5 mg, within a month of starting, all disposable income before
  maximum spending on binge foods: ≤ 5.00 $
[1]; Patient #4, daily dose 1.5 mg, within a month
  flexibility with eating and eating disordered cognitions: more flexible with their eating and less preoccupied with their eating disordered cognitions and urges to restrict and lose weight
[1]; Patient #4, donepezil restarted for a month at 1.5 mg daily, improvements continued after discontinuing
  flexibility with eating and weight after restart: more flexible with their eating, and they started to gain weight slowly
[1]; Patient #4, two months without donepezil after 1st month at 1.5 mg daily
  eating disordered cognitions after stopping medication: increasing rigidity in their eating disordered cognitions
[1]; Patient #5, 2.5 mg per day for 2 months, end of treatment period
  ease of eating: began to eat more easily
[1]; [5]
  eating disordered cognitions and ruminations: significant decrease in their eating disordered cognitions and ruminations
  intensity of body image distress: reduction in the intensity of their body image distress
[1]; low dose between 0.5 and 2.5 mg/day, clinical cases overall (conclusion)
  usefulness to treat anorexia and related compulsive behaviors: useful to treat anorexia and related compulsive behaviors
[2]; Patient #2, daily dose 0.5-2.5 mg
  OCD symptoms: diminution of OCD symptoms
[2]; Patient #2, daily dose 0.5-2.5 mg, pre-treatment score 32
  Y-BOCS score, post treatment: 22
[2]; Patient #4, daily dose 0.5 to 1.5 mg
  OCD symptoms: diminution of OCD symptoms
[2]; Patient #4, daily dose 0.5 to 1.5 mg, pre-treatment score 28
  Y-BOCS score, post treatment: 16
[2]; Patient #6, daily dose 0.5 mg to 2.5 mg
  OCD symptoms: diminution of OCD symptoms
[2]; Patient #6, daily dose 0.5 mg to 2.5 mg, pre-treatment score 28
  Y-BOCS score, post treatment: 17
